Experiments:
Assay in all cases: relative viability (nuclei count vs DMSO), 5 days (fraction); higher = more cells survive
[1] = compound: COc1cc2ncn(-c3cc(OCc4ccccc4C(F)(F)F)c(C(N)=O)s3)c2cc1OC + COc1cccc2cc(-c3nc([C@H]4CC[C@H](C(=O)O)CC4)n4ncnc(N)c34)[nH]c12 [OSI-027] (partner 0.5 µM)
Summary of the method: (§1)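 Relative viability equals treated-well nuclei counts divided by vehicle-well nuclei counts. Counts came from 4× images of lung cancer cell lines grown in 1536-well plates for 5 days after pin-tool dosing on the day after seeding. Dosing used one drug alone or a fixed anchor-drug dose plus five library-drug doses (not always all listed) in √10 steps, and values are medians of duplicate plates.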

[2] = compound: COc1cc2ncn(-c3cc(OCc4ccccc4C(F)(F)F)c(C(N)=O)s3)c2cc1OC + CCNC(=O)c1noc(-c2cc(C(C)C)c(O)cc2O)c1-c1ccc(CN2CCOCC2)cc1 [Luminespib] (partner 0.01 µM)
Summary of the method: as §1

[3] = compound: COc1cc2ncn(-c3cc(OCc4ccccc4C(F)(F)F)c(C(N)=O)s3)c2cc1OC + CS(=O)(=O)CCNCc1ccc(-c2ccc3ncnc(Nc4ccc(OCc5cccc(F)c5)c(Cl)c4)c3c2)o1 [Lapatinib] (partner 2 µM)
Summary of the method: as §1

[4] = compound: COc1cc2ncn(-c3cc(OCc4ccccc4C(F)(F)F)c(C(N)=O)s3)c2cc1OC + C[C@]1(O)C[C@@H](c2nc(-c3ccc4ccc(-c5ccccc5)nc4c3)c3c(N)nccn32)C1 [Linsitinib] (partner 1 µM)
Summary of the method: as §1

Cell Line	relative viability ([1]; first compound 0.05 µM)	relative viability ([1]; first compound 0.1581 µM)	relative viability ([1]; first compound 0.5 µM)	relative viability ([1]; first compound 5 µM)	relative viability ([2]; first compound 0.05 µM)	relative viability ([2]; first compound 0.1581 µM)	relative viability ([2]; first compound 0.5 µM)	relative viability ([2]; first compound 5 µM)	relative viability ([3]; first compound 0.05 µM)	relative viability ([3]; first compound 0.1581 µM)	relative viability ([3]; first compound 0.5 µM)	relative viability ([3]; first compound 1.581 µM)	relative viability ([3]; first compound 5 µM)	relative viability ([4]; first compound 0.05 µM)	relative viability ([4]; first compound 0.1581 µM)	relative viability ([4]; first compound 0.5 µM)	relative viability ([4]; first compound 1.581 µM)	relative viability ([4]; first compound 5 µM)	relative viability ([1]; first compound 1.581 µM)	relative viability ([2]; first compound 1.581 µM)
H3255	0.599	0.536	0.485	0.34	0.861	0.924	0.757	0.518	0.24	0.261	0.206	0.17	0.149	0.858	0.962	0.533	0.248	0.228		
EPLC-272H		0.277	0.225	0.136		0.31	0.115	0.153	0.976	0.867	0.527	0.111	0.0981	1.12	1.15	0.533	0.11	0.11	0.163	0.111
RERF-LC-KJ	0.534	0.494	0.226	0.253	1.31	1.24	0.373	0.268	0.939	0.987	0.839		0.689	0.806	0.901	0.559		0.357	0.205	0.306
NCI-H1793	0.3	0.299	0.161	0.116	0.163	0.194	0.176	0.128	0.741	0.84	0.409	0.306	0.209	0.928	0.847	0.763	0.248	0.145	0.144	0.15
EKVX	0.653	0.69	0.491	0.449	1	1.01	0.64	0.578	0.176	0.265	0.206	0.165	0.178	1.06	1.07	0.858	0.214	0.42		
ChaGo-K-1	0.622	0.531	0.32	0.134	0.617	0.516	0.285	0.14											0.182	0.18
NCI-H23	0.638	0.561	0.316	0.0957	0.211	0.209	0.213	0.22	1.22	0.789	0.451	0.159	0.141	0.655	0.371	0.274	0.113	0.131	0.117	0.206
EMC-BAC-2	0.37	0.429	0.29	0.172	1.19	1.22	0.931	0.219	0.998	0.944	0.786	0.228	0.216	0.906	0.843	0.696	0.509	0.164	0.194	0.569
LOU-NH91	0.677	0.772	0.656	0.682	0.358	0.385	0.308	0.301	0.768	0.793	0.676	0.444	0.499	0.94	1.05	0.824	0.526	0.595	0.525	0.278
LU99A	0.304	0.32	0.231	0.178	0.225	0.304	0.207	0.203	1	0.948	0.577	0.226	0.183	0.502	0.522	0.224	0.212	0.161	0.176	0.172
NCI-H1395	0.63	0.675	0.547	0.323	0.753	0.814	0.579	0.359	0.928	1.37	0.818	0.354	0.41	0.967	1	0.593	0.395	0.388	0.354	0.321
NCI-H460	0.625	0.616	0.227	0.0118	0.0239	0.0323	0.0299	0.0166	1.03	0.592	0.486	0.0094	0.0099	0.836	0.832	0.0599	0.0112	0.0063	0.0107	0.0165
201T	0.755	0.699	0.672	0.369	1.07	1.08	1	0.28	1.04	1.03	1.01	0.708	0.299	1.05	0.983	0.971	0.46	0.262		0.689
NCI-H1944	0.589	0.396	0.254	0.112	0.512	0.705	0.543	0.0836	0.972	1	0.729	0.165	0.114	1.2	1.15	0.923	0.257	0.171	0.14	0.177
NCI-H2405	0.647	0.613	0.384	0.268	0.76	0.601	0.341	0.338	1.12	0.882	0.669	0.402	0.323	0.99	0.757	0.372	0.424	0.386	0.357	0.283
NCI-H1703									1.28	1.44	0.564	0.17	0.235	0.721	0.992	0.205	0.143	0.078		

Cell Line	relative viability ([1]; first compound 0.05 µM)	relative viability ([1]; first compound 0.1581 µM)	relative viability ([1]; first compound 0.5 µM)	relative viability ([1]; first compound 5 µM)	relative viability ([2]; first compound 0.05 µM)	relative viability ([2]; first compound 0.1581 µM)	relative viability ([2]; first compound 0.5 µM)	relative viability ([2]; first compound 5 µM)	relative viability ([3]; first compound 0.05 µM)	relative viability ([3]; first compound 0.1581 µM)	relative viability ([3]; first compound 0.5 µM)	relative viability ([3]; first compound 1.581 µM)	relative viability ([3]; first compound 5 µM)	relative viability ([4]; first compound 0.05 µM)	relative viability ([4]; first compound 0.1581 µM)	relative viability ([4]; first compound 0.5 µM)	relative viability ([4]; first compound 1.581 µM)	relative viability ([4]; first compound 5 µM)	relative viability ([1]; first compound 1.581 µM)	relative viability ([2]; first compound 1.581 µM)
NCI-H1755	0.785	0.688	0.467	0.266	0.463	0.388	0.474	0.181	1.03	1.09	0.868	0.33	0.281	0.995	1.02	0.799	0.416	0.349	0.314	0.224
NCI-H2087	0.747	0.471	0.181	0.0877	0.174	0.177	0.162	0.167	0.995	1.06	0.582	0.175	0.121	0.995	0.981	0.307	0.168	0.195	0.101	0.14
NCI-H2228	0.662	0.558	0.192	0.179	0.114	0.159	0.147	0.126	1.26	0.998	0.297	0.162	0.251	0.525	0.52	0.253	0.176	0.231	0.134	0.139
NCI-H838	0.385	0.424	0.292	0.123	0.301	0.283	0.128	0.114	1.02	1.04	0.638	0.114	0.101	1.15	1.04	0.873	0.178	0.105	0.231	0.136
EBC-1									0.195	0.216	0.199	0.172	0.176	0.798	0.889	0.446	0.169	0.134		
NCI-H1299									0.984	0.92	0.599	0.314	0.312	0.984	1.12	0.636	0.245	0.253		
NCI-H2170	0.703	0.667	0.365	0.183	0.4	0.845	0.415	0.177	0.262	0.241	0.244	0.221	0.2						0.173	0.189
NCI-H1648	0.255	0.219	0.244	0.198															0.238	
LCLC-103H	0.495	0.538	0.405	0.12	0.771	0.927	0.594	0.151						1.21	1.09	0.841	0.53	0.344	0.249	0.273
NCI-H441	0.553	0.495	0.2	0.237	0.312	0.378	0.216	0.202						0.395	0.315	0.205	0.152	0.149	0.245	0.224
NCI-H1650	0.503	0.654	0.208	0.149	0.187	0.187	0.193	0.185	0.789	0.853	0.293	0.196	0.186						0.134	0.19
SW 900	0.59	0.618	0.364	0.093	0.183	0.165	0.205	0.16											0.173	0.171
IA-LM									0.617	0.49	0.0998	0.083	0.0955	0.58	0.606	0.172	0.0675	0.0619		
HCC-366	1.1	0.814	0.182	0.0229					1.11	1.02	0.359	0.0141	0.0131	0.837	0.635	0.114	0.0118	0.0055	0.0338	
NCI-H522	0.692	0.757	0.621	0.415	1.1	0.899	1.16	0.737											0.444	0.787
HCC-78	0.444	0.414	0.343	0.244					0.75	0.429	0.542	0.566	0.804	0.537	0.597	0.368	0.315	0.394	0.288	

Source: the supplement of paper PMC10307832
